Patent EP1100483B1, “GLUCOCORTICOID-SELECTIVE ANTI-INFLAMMATORY AGENTS” (Abbott Laboratories, priority 1998, dated 2000)

Target: T1, minerocorticoid receptor (MR) (Homo sapiens, UniProt P08235)
T1 construct: made in house; host or cells: SF21 insect cells (baculovirus)
T1 sequence (P08235 1-984): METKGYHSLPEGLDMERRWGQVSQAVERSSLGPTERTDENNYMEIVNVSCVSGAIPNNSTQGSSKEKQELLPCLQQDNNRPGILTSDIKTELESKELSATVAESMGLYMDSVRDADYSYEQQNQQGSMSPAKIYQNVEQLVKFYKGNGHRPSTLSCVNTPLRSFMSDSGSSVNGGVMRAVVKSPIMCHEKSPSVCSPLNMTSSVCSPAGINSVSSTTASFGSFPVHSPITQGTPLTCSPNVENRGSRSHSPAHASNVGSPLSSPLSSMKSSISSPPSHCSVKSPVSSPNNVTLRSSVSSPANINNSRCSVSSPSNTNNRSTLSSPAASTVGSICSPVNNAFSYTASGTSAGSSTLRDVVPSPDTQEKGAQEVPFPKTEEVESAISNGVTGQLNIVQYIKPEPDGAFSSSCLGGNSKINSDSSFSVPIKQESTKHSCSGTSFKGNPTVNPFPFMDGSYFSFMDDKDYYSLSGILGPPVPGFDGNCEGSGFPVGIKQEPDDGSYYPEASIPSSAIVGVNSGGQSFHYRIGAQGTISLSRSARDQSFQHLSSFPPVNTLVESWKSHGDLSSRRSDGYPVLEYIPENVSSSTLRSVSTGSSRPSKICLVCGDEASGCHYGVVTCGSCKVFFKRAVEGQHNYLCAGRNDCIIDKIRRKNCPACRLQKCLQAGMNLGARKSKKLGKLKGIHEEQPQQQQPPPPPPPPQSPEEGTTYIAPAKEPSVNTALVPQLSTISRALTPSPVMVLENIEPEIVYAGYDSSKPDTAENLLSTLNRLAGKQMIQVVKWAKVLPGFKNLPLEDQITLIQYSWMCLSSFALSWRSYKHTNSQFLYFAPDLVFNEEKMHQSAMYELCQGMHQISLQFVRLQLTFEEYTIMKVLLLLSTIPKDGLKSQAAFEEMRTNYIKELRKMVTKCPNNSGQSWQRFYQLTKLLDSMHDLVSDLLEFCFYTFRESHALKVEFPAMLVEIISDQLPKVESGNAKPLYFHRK
Assay: soluble minerocorticoid receptor (MR) binding assay, [3H]-aldosterone competition
Conditions: 3-4 nM [3H]-aldosterone, 4 °C for 18 hours; Cheng-Prusoff
Source text: For soluble minerocorticoid receptor (MR) binding assays, [^3H]-aldosterone (75-85 Ci/mmol) was purchased from New England Nuclear (Boston, MA), aldosterone was purchased from Sigma Chemical Co. (St. Louis, MO), CHAPS and DTT were purchased from Boehringer Mannheim GmbH (W. Germany) and all other reagents were purchased from Sigma.
The methods concerning growth, purification, and assays of recombinant viruses followed the protocol outlined by Summers, M.D., Smith, G.E., A Manual of Methods for Baculovirus Vectors and Insect Cell Culture Procedures, Tex. Agric. Exp. Stn. [Bull], 1987, No. 155, hereby incorporated by reference. The recombinant plasmids were cotransfected into SF21 cells with wild type AcNPV DNA, and the recombinant viruses were plaque purified.
A receptor extract was prepared from the baculovirus system, and aliquots were stored at -80 °C until used. Typical protein concentrations for these extracts were between 10 and 20 mg/ml. Stock solutions of aldosterone or other competing compounds were prepared as either 5 mM ethanol or DMSO stock solutions and serial dilutions were carried out in 1:1 DMSO-ethanol. The assay buffer consisted of the following: 25 mM sodium phosphate, 10 mM potassium fluoride, 20 mM sodium molybdate, 10% glycerol, 2 mM DTT and 0.25 mM CHAPS, pH=7.3 at room temperature.
Receptor assays were performed with a final volume of 250 µL containing from 50-75 µg of extract protein, plus 3-4 nM [^3H]-aldosterone and varying concentrations of competing ligand (0 to 10,000 nM). Assays were set up using a 96-well minitube system and incubations were carried out at 4 °C for 18 hours. Equilibrium under these conditions of buffer and temperature was achieved by 6-8 hours. Nonspecific binding was defined as that binding remaining in the presence of 1000 nM unlabeled aldosterone. At the end of the incubation period, 200 µL of 6.25% hydroxyapatite was added in wash buffer (binding buffer in the absence of DTT and CHAPS). Specific ligand binding to receptor was determined by a hydroxyapatite-binding assay according to the protocol outlined by Wecksler, W.R., Norman, A.W., An Hydroxylapatite Batch Assay for the Quantitation of 1α, 25-Dihydroxyvitamin D3-Receptor Complexes, Anal. Biochem. 1979, 92, 314-323, hereby incorporated by reference. Hydroxyapatite absorbs the receptor-ligand complex, allowing for the separation of bound from free radiolabeled ligand. The mixture was vortexed, incubated for 10 minutes at 4 °C, centrifuged, and the supernatant was removed. The hydroxyapatite pellet was washed twice more with the wash buffer. The amount of receptor-ligand complex was determined by liquid scintillation counting of the hydroxyapatite pellet after the addition of […] EcoScint A scintillation cocktail from National Diagnostics (Atlanta, GA.).
After correcting for nonspecific binding, IC50 values were determined. […] The IC50 values were determined graphically from a log-logit plot of the data. […] Standards are included in each assay and resulting Ki values are determined by use of a modified Cheng-Prusoff equation and used to calculate Ki values for "unknown analogs" as outlined by DeBlasi, A., O'Reilly, K., Motulsky, H.J., Calculating Receptor Number from Binding Experiments Using Same Compound As Radioligand and Competitor, TIPS 1989, 10.227-229, hereby incorporated by reference.

First: CC(=O)OCCN(C)c1ccc(C(c2ccc(N(C)C)cc2)c2cc([N+](=O)[O-])ccc2Cl)cc1 (stereo not shown) [Example 51, 4'-dimethylamino-4"-(N-methyl-N-(2-acetoxyethyl)amino)-2-chloro-5-nitrotriphenylmethane]
Second: CNc1ccc(C(c2ccc(N(C)CCOC(C)=O)cc2)c2cc([N+](=O)[O-])ccc2Cl)cc1 (stereo not shown) [Example 49, 4'-methylamino-4"-(N-(2-acetoxyethyl)-N-methylamino)-2-chloro-5-nitrotriphenylmethane]
The Ki of the first is higher: over 10000 nM for the first, 3910 nM for the second. The second binds more tightly here.

First: O=[N+]([O-])c1ccc(Cl)c(C(c2ccc(NCc3ccccc3)cc2)c2ccc(NCc3ccccc3)cc2)c1 [Example 36, 4',4" bis(N-benzylamino)-2-chloro-5-nitrotriphenylmethane]
Second: CNc1ccc(C(c2ccc(NC)cc2)c2cc([N+](=O)[O-])ccc2Cl)cc1 [Example 23, 4',4" bis(methylamino)-2-chloro-5-nitrotriphenylmethane]
The Ki of the first is lower: 2900 nM for the first, over 10000 nM for the second.

`CN(C)c1ccc(C(Oc2ccccc2)c2cc([N+](=O)[O-])ccc2Cl)cc1` (stereo not shown) [Example 52, phenyl-[(4'-dimethylaminophenyl)-(2-chloro-5-nitrophenyl)methyl] ether] and `CN(C)c1ccc(C(Sc2ccccc2)c2cc([N+](=O)[O-])ccc2Cl)cc1` (stereo not shown) [Example 54, phenyl-[(4'-dimethylaminophenyl)-(2-chloro-5-nitrophenyl)methyl]thioether] are within 1.5-fold of each other in Ki: 3110 nM for the first, 2900 nM for the second.

`CN(C)c1ccc(C(c2ccc(N(C)C)cc2)c2cc(Cl)ccc2Cl)cc1` [Example 24, 4',4" bis(dimethylamino)-2,5-dichlorotriphenylmethane] and `CN(C)c1ccc(C(c2ccc(N(C)C)cc2)c2cc([N+](=O)[O-])ccc2Cl)cc1` [Example 1, 4',4" bis(dimethylamino)-2-chloro-5-nitrotriphenylmethane] are the same in Ki: 2900 nM for the first, 2900 nM for the second.

`CC(=O)OCCN(C)c1ccc(C(c2ccc(N(C)CCOC(C)=O)cc2)c2cc([N+](=O)[O-])ccc2Cl)cc1` [Example 31, 4',4" bis(N-(2-acetoxyethyl) N-methylamino)-2-chloro-5-nitrotriphenylmethane] and `CN(CCO)c1ccc(C(c2ccc(N(C)CCO)cc2)c2cc([N+](=O)[O-])ccc2Cl)cc1` [Example 32, 4',4" bis(N-(2-hydroxyethyl) N-methylamino)-2-chloro-5-nitrotriphenylmethane] are the same in Ki: 3910 nM for the first, 3910 nM for the second.

`CN(C)c1ccc(C(c2ccc(N(C)CCO)cc2)c2cc([N+](=O)[O-])ccc2Cl)cc1` (stereo not shown) [Example 42, 4'-dimethylamino-4"-(N-methyl-N-(2-hydroxyethyl)amino)-2-chloro-5-nitrotriphenylmethane] and `CNc1ccc(C(c2ccc(N(C)C)cc2)c2cc([N+](=O)[O-])ccc2Cl)cc1` (stereo not shown) [Example 39, 4'-dimethylamino-4"-methylamino-2-chloro-5-nitrotriphenylmethane] are the same in Ki: 2900 nM for the first, 2900 nM for the second.

Work on `CNc1ccc(C(c2ccc(NC)cc2)c2cc(Cl)ccc2Cl)cc1` [Example 27, 4',4" bis(methylamino)-2,5-dichlorotriphenylmethane] yielded a Ki of over 10000 nM.
